Test results taken from patent US4965377A, “Process of forming 2-(2-bromo-2-nitroethenyl)-furan” (Great Lakes Chemical Corporation, priority 1989, dated 1990).
Values after ≈ are worked out from the molar mass of the structure shown. Where two headings read alike, the source gives them in different places.

Legend:
Baccilus megaterium = assay: Minimum inhibitory concentration against Bacillus megaterium; assay type: cell-based; details: Priestia megaterium, read-out: Minimum Inhibitory Conc
Method: (§1) All of the minimum inhibitory concentration determinations were made in a nutrient-rich growth medium in the following manner. Each organism was inoculated into a nutrient-rich medium that supported its growth. Various concentrations of a solution of the antimicrobial in THFA (90% THFA, 10% antimicrobial) were dosed into the inoculated growth medium; inoculated media were also dosed only with THFA (no antimicrobial)to serve as controls. Two concentrations of antimicrobial were recorded for each organism after growth in the controls was visible (the lowest concentration that prevented growth and the highest concentration that allowed growth); the MIC is reported as the range between these concentrations.

Chlorella pyrenoidosa = assay: Minimum inhibitory concentration against Chlorella pyrenoidosa; assay type: cell-based; details: Auxenochlorella pyrenoidosa
Method: as §1

Pseudomonas aeruginosa [1] = assay: Minimum inhibitory concentration against Pseudomonas aeruginosa; assay type: cell-based
Method: as §1

bacteria and algae = assay: Antimicrobial activity, general statement
[2] = system: naturally occurring microorganism in industrial cooling water; assay: Efficacy in industrial cooling water, ASTM E-645-85 method (FIG. 4); assay type: cell-based; details: 5 ppm, 24 hours of contact
Description: FIG. 4 is a graph showing the efficacy of 2-(2-bromo-2-nitroethenyl)-furan in industrial cooling water applications according to the ASTM E-645-85 method.
BNEF can also be used in water treatment such as for example treatment of industrial cooling water. […] Shorter contact times require a higher concentration of BNEF in the application. Preferably an antimicrobially effective amount of BNEF should be added to reduce the viability of microorganisms by at least 90 percent. It is especially preferred to employ about 1 ppm to about 5 ppm of BNEF.

Saccharomyces sp. = assay: Minimum inhibitory concentration against Saccharomyces sp.; assay type: cell-based; details: Table 3; nutrient-rich growth medium; fungus (yeast)
Method: as §1

Erwina anylovora = assay: Minimum inhibitory concentration against Erwina anylovora; assay type: cell-based; details: Table 3; nutrient-rich growth medium; bacterium
Method: as §1

[3] = ASTM Pulp and Paper efficacy test (ASTM E600-85); assay type: cell-based; details: compared with two commercially successful antimicrobials
Description: BNEF can also be used as an antimicrobial in pulp and paper manufacturing applications.

Pseudomonas aeruginosa [4] = assay: Contact time required for 99.9% reduction in viability of Pseudomonas aeruginosa in water; assay type: cell-based
Method: Virtually all modern water treatment applications are alkaline. Even in an alkaline condition, BNEF is quite active. Data in Table 2 show the contact time of BNEF required for a 99.9% reduction in Viability of Pseudomonas aeruginosa in water. Several pure culture cell suspensions of Pseudomonas aeruginosa were prepared in phosphate-buffered water that had been adjusted to pH 7.0 or pH 8.1. The initial concentration of viable cells was determined by counting colony forming-units in the standard spread plate method. A tetrahydrofurfuryl alcohol (THFA) solution containing the antimicrobial (90% THFA, 10% antimicrobial) was added to cell suspensions at each pH such that 10 ppm of the antimicrobial was dosed. Similarly, THFA was added without antimicrobial to cell suspensions at each pH value to serve as no-treatment controls. The concentration of viable cells was then determined at regular time intervals for all of the cell suspensions until at least 99.9% reduction in viability (compared to the controls) was achieved by the antimicrobial treatment.

bacteria = assay: Metal working fluid preservation test, bacteria (FIG. 3); assay type: cell-based, bacteria from spoiled metal working fluid; details: soluble oil, semisynthetic, and synthetic fluids; 72 hours, room temperature
Method: (§2) In addition to pulp and paper manufacturing, BNEF can be used as a metal working fluid preservative. […] These tests were performed in the following manner. A typical soluble oil, semi-synthetic, and synthetic metalworking fluid were prepared with tap water at a ratio of 20:1. A field sample of "spoiled" fluid was mixed with a nutrient broth (50/50) and incubated for 24 hours to serve as the bacterial inoculum. Fungi isolated from metalworking fluids were grown on agar plates. The fungi were harvested into a suspension which then served as the fungal inoculum. At time zero, 50 ml aliquots of each fluid were prepared. The fluids were inoculated and dosed with the antimicrobial agent at different concentrations. Time zero bacterial and fungal counts were taken on each control fluid. The samples were then placed on a mechanical shaker (at room temperature) for 72 hours. Bacterial and fungal counts were then performed. The preferred level of BNEF in this application is in the range of 10 to 100 ppm.

[5] = Kinetics of disinfection in phosphate buffer (FIG. 5); assay type: cell-based; details: 10 ppm (w/v); phosphate buffer pH 7.0
Description: FIG. 5 is a graph showing the kinetics of disinfection of 2-(2-bromo-2-nitroethenyl)-furan in comparison to its styrene analogue.

Xanthomonas palargonii = assay: Minimum inhibitory concentration against Xanthomonas palargonii; assay type: cell-based; details: Table 3, nutrient-rich growth medium, bacterium
Method: as §1

Staphylococcus aureus = assay: Minimum inhibitory concentration against Staphylococcus aureus; assay type: cell-based; details: Table 3, nutrient-rich growth medium, bacterium
Method: as §1

Alternaria solani = assay: Minimum inhibitory concentration against Alternaria solani; assay type: cell-based; details: Table 3, nutrient-rich growth medium, fungus
Method: as §1

Pseudomonas aeruginosa [6] = assay: Viability of Pseudomonas aeruginosa in phosphate buffered water (FIG. 1); assay type: cell-based; details: after 6 hours of contact, pH 7.2
Method: FIG. 1 illustrates a decrease in the viability of Pseudomonas aeruginosa, a common bacterial genus found in industrial cooling water upon contact with different concentrations of BNEF. The experiment was performed in phosphate buffered water at a pH of 7.2.

Asperillus niger = assay: Minimum inhibitory concentration against Asperillus niger; assay type: cell-based; details: Table 3; nutrient-rich growth medium; fungus
Method: as §1

[7] = system: Agrobacterium tumefaciens; assay: Minimum inhibitory concentration against Agrobacterium tumefaciens; assay type: cell-based; details: Table 3, nutrient-rich growth medium, bacterium
Method: as §1

fungi = assay: Metal working fluid preservation test, fungi; assay type: cell-based, fungi isolated from metalworking fluids; details: soluble oil, semisynthetic, and synthetic fluids; 72 hours, room temperature
Method: as §2

Erwina chysanthemi = assay: Minimum inhibitory concentration against Erwina chysanthemi; assay type: cell-based; details: Table 3; nutrient-rich growth medium; bacterium
Method: as §1

[8] = system: Photobacterium phosphoreum; assay: Minimum inhibitory concentration against Photobacterium phosphoreum; assay type: cell-based; details: Table 3, nutrient-rich growth medium, bacterium
Method: as §1

[9] = system: Xanthomonas poinsettiacola; assay: Minimum inhibitory concentration against Xanthomonas poinsettiacola; assay type: cell-based; details: Table 3, nutrient-rich growth medium, bacterium
Method: as §1

Xanthomonas prunii = assay: Minimum inhibitory concentration against Xanthomonas prunii; assay type: cell-based; details: Table 3, nutrient-rich growth medium, bacterium
Method: as §1

Trichoderma virde = assay: Minimum inhibitory concentration against Trichoderma virde; assay type: cell-based; details: Table 3, nutrient-rich growth medium, fungus
Method: as §1

Rhizoctonia sp. = assay: Minimum inhibitory concentration against Rhizoctonia sp.; assay type: cell-based; details: Table 3, nutrient-rich growth medium, fungus
Method: as §1

[10] = system: Desulfovibro desulfuricans; assay: Minimum inhibitory concentration against Desulfovibro desulfuricans; assay type: cell-based; details: Table 3; nutrient-rich growth medium; bacterium
Method: as §1

Erwina caratovora = assay: Minimum inhibitory concentration against Erwina caratovora; assay type: cell-based; details: Table 3; nutrient-rich growth medium; bacterium
Method: as §1

[11] = read-out: Minimum Inhibitory Conc
[12] = Table 1, Chlorella pyrenoidosa, read-out: Minimum Inhibitory Conc
[13] = Table 1, read-out: Minimum Inhibitory Conc
[14] = Table 4, analogues, read-out: MIC Against Pseudomonas aeruginosa

SMILES: O=CC=Cc1ccco1 [3-(2-furyl)acrolein]
- MIC (Baccilus megaterium): 250 to 500 µg/mL (≈ 2050 to 4090 µM)
- MIC (Chlorella pyrenoidosa; [11]): 16 to 63 µg/mL (≈ 131 to 516 µM)
- MIC (Pseudomonas aeruginosa [1]; [11]): 250 to 500 µg/mL (≈ 2050 to 4090 µM)

SMILES: O=[N+]([O-])C=Cc1ccco1 [2-nitro-1-(2-furyl)ethylene, reference compound]
- MIC (Baccilus megaterium; Table 1, Baccilus megaterium): 63 to 125 µg/mL (≈ 453 to 899 µM)
- MIC (Chlorella pyrenoidosa; [12]): 16 to 63 µg/mL (≈ 115 to 453 µM)
- antimicrobial activity relative to BNEF (bacteria and algae; background statement): lower antimicrobial activity
- MIC (Pseudomonas aeruginosa [1]; [13]): 63 to 125 µg/mL (≈ 453 to 899 µM)

SMILES: C=Cc1ccco1 [furylethylene]
- MIC (Baccilus megaterium; Table 1, Baccilus megaterium): > 1000 µg/mL
- MIC (Chlorella pyrenoidosa; [12]): 250 to 1000 µg/mL (≈ 2660 to 10600 µM)
- MIC (Pseudomonas aeruginosa [1]; [13]): > 1000 µg/mL

SMILES: O=[N+]([O-])C(Br)=Cc1ccco1 [BNEF, 2-(2-bromo-2-nitroethenyl)-furan]
- reduction in viability [2]: ~99%
- MIC (Saccharomyces sp.): < 3 µg/mL
- MIC (Erwina anylovora): < 0.5 µg/mL
- activity in Pulp and Paper efficacy test [3]: at least as active as two commercially successful antimicrobials
- Required Contact Time (99.9% reduction) (Pseudomonas aeruginosa [4]; 10 ppm, pH 7.0, Initial Cell Concentration 3.2 × 10^4): 5 h
- Required Contact Time (99.9% reduction) (Pseudomonas aeruginosa [4]; 10 ppm, pH 8.1, Initial Cell Concentration ~1.0 × 10^4): 1 h
- disinfection rate, effect of pH (Pseudomonas aeruginosa [4]; 10 ppm, pH level of 8 compared to pH level of 7): faster at a pH level of 8
- effectiveness in metal working fluids against bacteria (bacteria): effective
- effectiveness compared to β-bromo-β-nitrostyrene [5]: as effective as an antimicrobial in water treatment application as β-bromo-β-nitrostyrene
- MIC (Baccilus megaterium; Table 1, Baccilus megaterium): 5 to 10 µg/mL (≈ 22.9 to 45.9 µM)
- MIC (Xanthomonas palargonii): 1 to 2 µg/mL (≈ 4.59 to 9.17 µM)
- MIC (Chlorella pyrenoidosa; [12]): 4 to 16 µg/mL (≈ 18.3 to 73.4 µM)
- MIC (Chlorella pyrenoidosa; Table 3, nutrient-rich growth medium, algae, read-out: MIC): 4 to 16 µg/mL (≈ 18.3 to 73.4 µM)
- MIC (Staphylococcus aureus): 3 to 7.6 µg/mL (≈ 13.8 to 34.9 µM)
- MIC (Alternaria solani): < 1 µg/mL
- concentration required to eliminate 99.9% of the test inoculum (Pseudomonas aeruginosa [6]): about 10 ppm
- MIC (Asperillus niger): < 1 µg/mL
- MIC [7]: 0.5 to 1 µg/mL (≈ 2.29 to 4.59 µM)
- effectiveness in metal working fluids against fungi (fungi): effective
- antimicrobial activity (bacteria and algae; summary of Table 1): active at very low concentrations
- MIC (Erwina chysanthemi): 0.5 to 1 µg/mL (≈ 2.29 to 4.59 µM)
- MIC [8]: 1 to 5 µg/mL (≈ 4.59 to 22.9 µM)
- MIC [9]: 0.5 to 1 µg/mL (≈ 2.29 to 4.59 µM)
- MIC (Xanthomonas prunii): 2 to 5 µg/mL (≈ 9.17 to 22.9 µM)
- MIC (Trichoderma virde): < 5 µg/mL
- MIC (Rhizoctonia sp.): < 1 µg/mL
- MIC (Pseudomonas aeruginosa [1]; [13]): 5 to 10 µg/mL (≈ 22.9 to 45.9 µM)
- MIC [10]: < 2 µg/mL
- MIC (Erwina caratovora): 0.5 to 1 µg/mL (≈ 2.29 to 4.59 µM)

SMILES: O=Cc1ccc([N+](=O)[O-])o1 [5-nitro-2-furaldehyde]
- MIC (Baccilus megaterium; Table 1, Baccilus megaterium): 3 to 6 µg/mL (≈ 21.3 to 42.5 µM)
- MIC (Chlorella pyrenoidosa; [12]): 4 to 16 µg/mL (≈ 28.4 to 113 µM)
- MIC (Pseudomonas aeruginosa [1]; [13]): 6 to 12 µg/mL (≈ 42.5 to 85.1 µM)

SMILES: O=[N+]([O-])C(Br)=Cc1cccs1 [2-(2-bromo-2-nitroethenyl)-thiophene]
- MIC (Pseudomonas aeruginosa [1]; [14]): 21 to 42 µg/mL (≈ 89.7 to 179 µM)

SMILES: Cc1ccc(C=C(Br)[N+](=O)[O-])o1 [5-methyl-2-(2-bromo-2-nitroethenyl)-furan]
- MIC (Pseudomonas aeruginosa [1]; [14]): 21 to 42 µg/mL (≈ 90.5 to 181 µM)

SMILES: O=[N+]([O-])C(Br)=Cc1ccc([N+](=O)[O-])o1 [5-nitro-2-(2-bromo-2-nitroethenyl)-furan]
- MIC (Pseudomonas aeruginosa [1]; read-out: MIC Against Pseudomonas aeruginosa): 8 to 16 µg/mL (≈ 30.4 to 60.8 µM)

SMILES: O=[N+]([O-])C(Br)=Cc1ccccc1 [β-bromo-β-nitrostyrene, reference compound]
- disinfection rate, effect of higher pH (Pseudomonas aeruginosa [4]; β-bromo-β-nitrostyrene, source of finding not stated): Increased disinfection rate with higher pH

SMILES: O=[N+]([O-])C(Br)=Cc1ccc(Br)o1 [5-bromo-2-(2-bromo-2-nitroethenyl)-furan]
- MIC (Pseudomonas aeruginosa [1]; [14]): 10 to 20 µg/mL (≈ 33.7 to 67.4 µM)
